Reference: patent US20210260096A1, “PHARMACEUTICAL COMPOSITION FOR TREATING WOUND OR ACTIVATING SKIN, CONTAINING BETA-GLUCAN, GLYCITIN, AND 4',6,7-TRIMETHOXYISOFLAVONE” (Quegen Biotech Co., Ltd., priority 2018, published 2021)

Columns and labels:
[1] = test system: human keratinocytes (HaCaTs); experiment: Differentiation, migration and invasion of epithelial cells under β-glucan single treatment; format: cell-based; conditions: 0.5% β-glucan among 0 to 10%; FIG. 1
Procedure: (§1) The differentiation, migration and invasion of epithelial cells, such as human keratinocytes, and the differentiation of fibroblasts according to the single treatment of β-glucan were examined. β-glucan was produced by QUEGEN BIOTECH Co., LTD and used. Human dermal fibroblasts and human keratinocytes were purchased from Korean Cell Line Bank and used. The human dermal fibroblasts (HDFs) or the human keratinocytes (HaCaTs) were seeded in a 6-well plate containing […] of 10% FBS-containing DMEM at 1×10^4 cells/well (HDF) and 5×10^4 cells/well (HaCaT), and cultured under conditions of 37° C. and 5% CO2. During culture, the concentration of the epithelial cells (HaCaTs) and the fibroblasts were treated with 200 μL of β-glucan to have a concentration of 0 to 10% in a concentration dependent manner.

[2] = test system: human dermal fibroblasts (HDFs); experiment: Differentiation of fibroblasts under β-glucan single treatment; format: cell-based; conditions: β-glucan 0 to 10%; FIG. 1
Procedure: as §1

HaCaTs and HDFs = experiment: Proliferation and migration in Transwell HaCaT/HDF co-culture by composition of mixed solution; format: cell-based, human; conditions: with respect to control PBS, 24 hours
Procedure: 5×10^4 cells/well of HaCaTs were seeded in the upper part and 1×10^4 cells/well of HDFs were seeded in the lower part of a Transwell invasion kit, […] of 10% FBS-containing DMEM and the three kinds of test solutions were treated and incubated under conditions of 37° C. and 5% CO2 for 24 hours, followed by determining an optimal concentration condition.

With β-glucan the “differentiation, migration and invasion of epithelial cells by concentration” value [1] was “optimal results”, the “differentiation of the fibroblasts” value [2] was “no significant change” and the “Migration (%)” value (HaCaTs and HDFs; 0.1%) was 110%. For the same substance, the “Proliferation (%)” value (HaCaTs and HDFs; 0.1%) was 105%, the “Migration (%)” value (HaCaTs and HDFs; 0.25%) was 130% and the “Proliferation (%)” value (HaCaTs and HDFs; 0.25%) was 111%. The “Migration (%)” value (HaCaTs and HDFs; 0.5%) was 151%, the “Proliferation (%)” value (HaCaTs and HDFs; 0.5%) was 120% and the “Migration (%)” value (HaCaTs and HDFs; 0.7%) was 153%. The “Proliferation (%)” value (HaCaTs and HDFs; 0.7%) was 125%, the “Migration (%)” value (HaCaTs and HDFs; 1.0%) was 161% and the “Proliferation (%)” value (HaCaTs and HDFs; 1.0%) was 122%. For the same substance, the “Migration (%)” value (HaCaTs and HDFs; 1.5%) was 110% and the “Proliferation (%)” value (HaCaTs and HDFs; 1.5%) was 118%.
